Assay results taken from patent US11535621B2, “Heterobicyclic amides as inhibitors of CD38” (Ribon Therapeutics, Inc., priority 2019, dated 2022).

Each compound was assayed against Human CD38 (Homo sapiens (Human), UniProt P28907) (assay: CD38 enzyme assay). Details: 2 nM CD38, NAD+ substrate, absorbance at 405 nm.
Chain of Human CD38 (P28907 whole entry): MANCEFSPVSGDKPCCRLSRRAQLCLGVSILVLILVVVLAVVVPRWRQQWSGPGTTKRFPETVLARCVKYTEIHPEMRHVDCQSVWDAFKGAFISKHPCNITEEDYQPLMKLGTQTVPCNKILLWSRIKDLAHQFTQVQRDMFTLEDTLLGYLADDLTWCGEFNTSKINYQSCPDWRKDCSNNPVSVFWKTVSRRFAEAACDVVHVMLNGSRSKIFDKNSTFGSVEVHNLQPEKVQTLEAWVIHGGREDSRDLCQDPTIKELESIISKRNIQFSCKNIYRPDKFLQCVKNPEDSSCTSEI
Format: biochemical
Outline: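 IC50 values come from fitting % inhibition against compound concentration with a 4-parameter logistic, or a 3-parameter fit with top/bottom fixed at 100/0 or Hill at 1. Inhibition is scaled between DMSO wells and positive-control wells treated with a quinolinone CD38 inhibitor.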
With COCCO[C@H]1CC[C@H](NC(=O)c2nc(-n3cncc3C)nc3cc[nH]c23)CC1 [Example 36, N-((1r,4r)-4-(2-Methoxyethoxy)cyclohexyl)-2-(5-methyl-1H-imidazol-1-yl)-5H-pyrrolo[3,2-d]pyrimidine-4-carboxamide] the IC50 was 10 to 100 nM. For O=C(N[C@H]1CC[C@@H](NCC(F)(F)F)CC1)c1nc(-n2ccnc2)cc2cn[nH]c12 [Example 116, 5-(1H-imidazol-1-yl)-N-((1s,4s)-4-((2,2,2-trifluoroethyl)amino)cyclohexyl)-1H-pyrazolo[3,4-c]pyridine-7-carboxamide], the IC50 was 10 to 100 nM. Compound O=C(N[C@H]1CC[C@H](C(F)(F)F)CC1)c1nc(-n2ccnc2)nc2nc[nH]c12 [Example 147] has an IC50 of 10 to 100 nM. For CC(C)NC(=O)c1nc(-n2ccnc2)nc2cc[nH]c12 [Example 93, 2-(1H-Imidazol-1-yl)-N-isopropyl-5H-pyrrolo[3,2-d]pyrimidine-4-carboxamide], the IC50 was 10 to 100 nM. Work on O=C(Nc1cncnc1)c1nc(-n2ccnc2)nc2cc[nH]c12 [Example 153] yielded an IC50 of less than 10 nM. CN(C)CCOc1ccc(NC(=O)c2nc(-n3ccnc3)cc3cn[nH]c23)cn1 [Example 223, N-(6-(2-(dimethylamino)ethoxy)pyridin-3-yl)-5-(1H-imidazol-1-yl)-1H-pyrazolo[3,4-c]pyridine-7-carboxamide] showed an IC50 of 10 to 100 nM. O=C(N[C@H]1CC[C@@](O)(C(F)(F)F)CC1)c1nc(-n2ccnc2)nc2cc[nH]c12 [Example 120b, N-((1r,4r)-4-hydroxy-4-(trifluoromethyl)cyclohexyl)-2-(1H-imidazol-1-yl)-5H-pyrrolo[3,2-d]pyrimidine-4-carboxamide] gave an IC50 of 10 to 100 nM. With CS(=O)(=O)[C@H]1CC[C@H](NC(=O)c2nc(-n3ccnc3)nc3cc[nH]c23)CC1 [Example 213, 2-(1H-imidazol-1-yl)-N-((1r,4r)-4-(methylsulfonyl)cyclohexyl)-5H-pyrrolo[3,2-d]pyrimidine-4-carboxamide] the IC50 was 10 to 100 nM. Work on O=C(NC1CCCCC1)c1nc(-n2ccnc2)nc2cc[nH]c12 [Example 59, N-cyclohexyl-2-(1H-Imidazol-1-yl)-5H-pyrrolo[3,2-d]pyrimidine-4-carboxamide] yielded an IC50 of less than 10 nM. CC(C)(O)[C@H]1CC[C@H](NC(=O)c2nc(-n3ccnc3)nc3cc[nH]c23)CC1 [Example 139] gave an IC50 of 10 to 100 nM. For O=C(NC1(c2ccccc2)CC1)c1nc(-n2ccnc2)nc2cc[nH]c12 [Example 164], the IC50 was 10 to 100 nM. CC(C)[C@@H](O)CO[C@H]1CC[C@H](NC(=O)c2nc(-n3ccnc3)nc3cc[nH]c23)CC1 (single isomer, unassigned) [Example 119a] was tested, and the IC50 was 10 to 100 nM. For O=C(Nc1ccc(OCCN2CC3(COC3)C2)nc1)c1nc(-n2ccnc2)cc2cn[nH]c12 [Example 230, N-(6-(2-(2-oxa-6-azaspiro[3.3]heptan-6-yl)ethoxy)pyridin-3-yl)-5-(1H-imidazol-1-yl)-1H-pyrazolo[3,4-c]pyridine-7-carboxamide], the IC50 was 10 to 100 nM. In the case of CC(=O)N1CC2CC1CC2NC(=O)c1nc(-n2ccnc2)nc2cc[nH]c12 (stereo not shown) [Example 172], the IC50 is reported as 10 to 100 nM. COCCO[C@H]1CC[C@H](NC(=O)c2cc(-n3ccnc3)cc3nc(C)[nH]c23)CC1 [Example 30, 5-(1H-imidazol-1-yl)-N-((1r,4r)-4-(2-methoxyethoxy)cyclohexyl)-2-methyl-1H-benzo[d]imidazole-7-carboxamide] showed an IC50 of 100 to 1000 nM. Compound O=C(NC1CCOCC1)c1nc(-n2ccnc2)nc2cc[nH]c12 [Example 62, 2-(1H-Imidazol-1-yl)-N-(tetrahydro-2H-pyran-4-yl)-5H-pyrrolo[3,2-d]pyrimidine-4-carboxamide] has an IC50 of 10 to 100 nM. Compound CO[C@H]1CC[C@H](NC(=O)c2nc(-n3ccnc3)nc3cn[nH]c23)CC1 [Example 183] has an IC50 of less than 10 nM. Compound O=C(NCCC1CCC(F)(F)CC1)c1nc(-n2ccnc2)nc2cc[nH]c12 [Example 157] has an IC50 of 10 to 100 nM. With O=C(N[C@H]1CC[C@H](C2(O)CC2)CC1)c1nc(-n2ccnc2)cc2cn[nH]c12 [Example 228, N-((1r,4r)-4-(1-hydroxycyclopropyl)cyclohexyl)-5-(1H-imidazol-1-yl)-1H-pyrazolo[3,4-c]pyridine-7-carboxamide] the IC50 was less than 10 nM. Work on CO[C@]1(C)CC[C@@H](NC(=O)c2nc(-n3ccnc3)nc3cc[nH]c23)CC1 [Example 128a, 2-(1H-imidazol-1-yl)-N-((1r,4r)-4-methoxy-4-methylcyclohexyl)-5H-pyrrolo[3,2-d]pyrimidine-4-carboxamide] yielded an IC50 of less than 10 nM. With O=C(NCC1CCCCC1)c1nc(-n2ccnc2)nc2cc[nH]c12 [Example 78, N-(Cyclohexylmethyl)-2-(1H-imidazol-1-yl)-5H-pyrrolo[3,2-d]pyrimidine-4-carboxamide] the IC50 was 10 to 100 nM. Work on COCCO[C@H]1CC[C@H](NC(=O)c2nc(-c3cncs3)nc3ccsc23)CC1 [Example 50, N-((1r,4r)-4-(2-Methoxyethoxy)cyclohexyl)-2-(thiazol-5-yl)thieno[3,2-d]pyrimidine-4-carboxamide] yielded an IC50 of 10 to 100 nM. C[C@@H](O)[C@H]1CC[C@H](NC(=O)c2nc(-n3ccnc3)cc3cn[nH]c23)CC1 [Example 192b, N-((1R,4r)-4-((R)-1-hydroxyethyl)cyclohexyl)-5-(1H-imidazol-1-yl)-1H-pyrazolo[3,4-c]pyridine-7-carboxamide] showed an IC50 of less than 10 nM. Work on C[C@@H](O)CO[C@H]1CC[C@H](NC(=O)c2nc(-n3ccnc3)cc3cn[nH]c23)CC1 (single isomer, unassigned) [Example 208] yielded an IC50 of 10 to 100 nM. With O=C(NCc1c(F)cccc1C(F)(F)F)c1nc(-c2cncs2)cc2nc[nH]c12 [Example 33, N-(2-Fluoro-6-(trifluoromethyl)benzyl)-6-(thiazol-5-yl)-3I-imidazo[4,5-c]pyridine-4-carboxamide] the IC50 was greater than 1000 nM. With Cc1nc2nc(-n3ccnc3)nc(C(=O)NC3CCC(F)(F)CC3)c2[nH]1 [Example 117, N-(4,4-difluorocyclohexyl)-2-(1H-imidazol-1-yl)-8-methyl-7H-purine-6-carboxamide] the IC50 was 10 to 100 nM. COCCO[C@H]1CC[C@@H](NC(=O)c2nc(-n3ccnc3)nc3cc[nH]c23)CC1 [Example 69, 2-(1H-Imidazol-1-yl)-N-((1s,4s)-4-(2-methoxyethoxy)cyclohexyl)-5H-pyrrolo[3,2-d]pyrimidine-4-carboxamide] was tested, and the IC50 was 10 to 100 nM. With O=C(N[C@H]1CC[C@H](NCC(F)(F)F)CC1)c1nc(-n2ccnc2)nc2ccsc12 [Example 220, 2-(1H-imidazol-1-yl)-N-((1r,4r)-4-(2,2,2-trifluoroethylamino)cyclohexyl)thieno[3,2-d]pyrimidine-4-carboxamide] the IC50 was 10 to 100 nM. For COCCO[C@H]1CC[C@H](NC(=O)c2nc(-n3ccnc3C)nc3cc[nH]c23)CC1 [Example 34, N-((1r,4r)-4-(2-Methoxyethoxy)cyclohexyl)-2-(2-methyl-1H-imidazol-1-yl)-5H-pyrrolo[3,2-d]pyrimidine-4-carboxamide], the IC50 was greater than 1000 nM. With COCCO[C@H]1CC[C@H](NC(=O)c2cc(-n3ccnc3)cc3cnsc23)CC1 [Example 41, 5-(1H-Imidazol-1-yl)-N-((1r,4r)-4-(2-methoxyethoxy)cyclohexyl)benzo[d]isothiazole-7-carboxamide] the IC50 was 100 to 1000 nM. N#Cc1ccc(NC(=O)c2nc(-n3ccnc3)cc3cn[nH]c23)cc1 [Example 205, N-(4-cyanophenyl)-5-(1H-imidazol-1-yl)-1H-pyrazolo[3,4-c]pyridine-7-carboxamide] gave an IC50 of less than 10 nM.
